# What was measured:
# Type in all cases: in vivo
# [1] = tested on: Abutilon theophrasti; assay: Herbicidal action post-emergence (greenhouse pot trial); conditions: scored visually after about 3 weeks vs untreated controls
# Summary of the method: (§1)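 Percent herbicidal efficacy, assessed by eye about 3 weeks after spraying, compares treated with untreated plants. Treatment is a post-emergence spray at the one-leaf stage, using a WP or EC preparation plus 0.5% additive in 600 L/ha of water, at 80 g/ha or lower.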
# [2] = tested on: Amaranthus retroflexus; assay: as above; conditions: application rate 20 g/ha, scored visually after about 3 weeks vs untreated controls
# Summary of the method: as §1
# [3] = tested on: Echinochloa crus-galli; assay: as above; conditions: application rate 20 g/ha, scored visually after about 3 weeks vs untreated controls
# Summary of the method: as §1
# [4] = tested on: Matricaria inodora; assay: as above; conditions: scored visually after about 3 weeks vs untreated controls
# Summary of the method: as §1
# [5] = tested on: Polygonum convolvulus; assay: as above; conditions: scored visually after about 3 weeks vs untreated controls
# Summary of the method: as §1
# [6] = tested on: Stellaria media; assay: as above; conditions: application rate 20 g/ha, scored visually after about 3 weeks vs untreated controls
# Summary of the method: as §1
# [7] = tested on: Veronica persica; assay: as above; conditions: application rate 20 g/ha
# Summary of the method: as §1
# [8] = tested on: Viola tricolor; assay: as above
# Summary of the method: as §1
# [9] = tested on: Glycine max; assay: Crop compatibility post-emergence (greenhouse pot trial)
# Summary of the method: (§2)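 Visual % rating about 3 weeks post-treatment against untreated plants (100% dead, 0% unaffected). Post-emergence spray of aqueous WP/EC preparations with 0.5% additive at 600 L/ha water, applied at one-leaf stage to greenhouse pot-grown crops in sandy loam.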
# [10] = tested on: Oryza sativa; assay: as above; conditions: application rate 20 g/ha
# Summary of the method: as §2
# [11] = tested on: Triticum aestivum; assay: as above
# Summary of the method: as §2
# [12] = tested on: Zea mays; assay: as above
# Summary of the method: as §2
# [13] = tested on: Pharbitis purpurea; assay: Herbicidal action post-emergence (greenhouse pot trial)
# Summary of the method: as §1
# [14] = tested on: Setaria viridis; assay: as above; conditions: scored visually after about 3 weeks vs untreated controls
# Summary of the method: as §1
# [15] = tested on: Abutilon theophrasti; assay: Herbicidal action pre-emergence (greenhouse pot trial); conditions: scored after about 3 weeks
# Excerpt: (§3) Seeds of mono- and dicotyledonous weeds and crop plants were laid out in plastic or organic plant pots and covered with soil. The compounds of the invention formulated in the form of wettable powders (WP) or emulsion concentrates (EC) were then applied to the surface of the covering soil as an aqueous suspension or emulsion with addition of 0.5% additive at a water application rate equivalent to 600 L/ha. After the treatment, the pots were placed in a greenhouse and kept under good growth conditions for the test plants. After about 3 weeks, the efficacy of the preparations was scored visually as a percentage by comparison with untreated controls. For example, 100% efficacy=plants have died, 0% efficacy=like control plants. Tables B1 to B16 below show the efficacies of selected compounds of the general formula (I) according to tables I.1 to I.60 on various harmful plants and an application rate corresponding to 320 g/ha or lower that were obtained by the aforementioned trial method.
# [16] = tested on: Alopecurus myosuroides; assay: as above; conditions: application rate 320 g/ha, scored after about 3 weeks
# Excerpt: as §3
# [17] = tested on: Amaranthus retroflexus; assay: as above; conditions: scored after about 3 weeks
# Excerpt: as §3
# [18] = tested on: Avena fatua; assay: as above; conditions: application rate 320 g/ha
# Excerpt: as §3
# [19] = tested on: Echinochloa crus-galli; assay: as above; conditions: application rate 320 g/ha, scored after about 3 weeks
# Excerpt: as §3
# [20] = tested on: Lolium rigidum; assay: as above; conditions: application rate 320 g/ha
# Excerpt: as §3
# [21] = tested on: Matricaria inodora; assay: as above; conditions: scored after about 3 weeks
# Excerpt: as §3
# [22] = tested on: Pharbitis purpurea; assay: as above; conditions: application rate 320 g/ha
# Excerpt: as §3
# [23] = tested on: Setaria viridis; assay: as above; conditions: application rate 320 g/ha, scored after about 3 weeks
# Excerpt: as §3
# [24] = tested on: Stellaria media; assay: as above; conditions: application rate 320 g/ha, scored after about 3 weeks
# Excerpt: as §3
# [25] = tested on: Veronica persica; assay: as above; conditions: application rate 320 g/ha
# Excerpt: as §3
# [26] = tested on: Viola tricolor; assay: as above; conditions: scored after about 3 weeks
# Excerpt: as §3
# [27] = tested on: Glycine max; assay: Crop compatibility pre-emergence (greenhouse pot trial); conditions: application rate 80 g/ha, effect vs untreated controls
# Excerpt: as §3, with “plants.” for “plants. Tables B1 to B16 below show the efficacies of selected compounds of the general formula (I) according to tables I.1 to I.60 on various harmful plants and an application rate corresponding to 320 g/ha or lower that were obtained by the aforementioned trial method.”
# (§4) Crop compatibilities were also scored correspondingly.
# (§5) The effects observed are reported here on selected crop plants by comparison with the untreated controls (values in %).
# [28] = tested on: Zea mays; assay: as above; conditions: application rate 80 g/ha, effect vs untreated controls
# Excerpt: as §3, with “plants.” for “plants. Tables B1 to B16 below show the efficacies of selected compounds of the general formula (I) according to tables I.1 to I.60 on various harmful plants and an application rate corresponding to 320 g/ha or lower that were obtained by the aforementioned trial method.”
# as §4, §5
# [29] = tested on: Digitaria sanguinalis; assay: Herbicidal action post-emergence (greenhouse pot trial); conditions: application rate 20 g/ha
# Summary of the method: as §1
# [30] = tested on: Hordeum murinum; assay: as above; conditions: application rate 20 g/ha, scored visually after about 3 weeks vs untreated controls
# Summary of the method: as §1
structure (smiles),measurement,setting,value
"CCC(Sc1cc(-n2c(=O)c(C)c(C(F)(F)F)n(C)c2=O)c(F)cc1Cl)C(=O)OCC1CCOC1 (centres unmarked) [I.12-72, Tetrahydrofuran-3-ylmethyl 2-({2-chloro-4-fluoro-5-[3,5-dimethyl-2,6-dioxo-4-(trifluoromethyl)-3,6-dihydropyrimidin-1(2H)-yl]phenyl}sulfanyl)butanoate]",Abutilon theophrasti (Efficacy in %),[1]; application rate 20 g/ha,100%
same,Amaranthus retroflexus (Efficacy in %),[2],100%
same,Echinochloa crus-galli (Efficacy in %),[3],100%
same,Matricaria inodora (Efficacy in %),[4]; application rate 20 g/ha,100%
same,Polygonum convolvulus (Efficacy in %),[5]; application rate 20 g/ha,100%
same,Stellaria media (Efficacy in %),[6],100%
same,Veronica persica (Efficacy in %),[7],100%
same,Viola tricolor (Efficacy in %),[8]; application rate 20 g/ha,100%
same,Glycine max (Efficacy in %),[9]; application rate 5 g/ha,20%
same,Oryza sativa (Efficacy in %),[10],20%
same,Triticum aestivum (Efficacy in %),[11]; application rate 20 g/ha,0%
same,Zea mays (Efficacy in %),[12]; application rate 5 g/ha,0%
CC(Sc1cc(-n2c(=O)cc(C(F)(F)F)n(C)c2=O)c(F)cc1Cl)C(=O)NC1(C#N)CCSC1 (centres unmarked) [I.1-340],Abutilon theophrasti (Efficacy in %),[1]; application rate 80 g/ha,100%
same,Matricaria inodora (Efficacy in %),[4]; application rate 80 g/ha,100%
same,Pharbitis purpurea (Efficacy in %),[13]; application rate 80 g/ha,100%
same,Polygonum convolvulus (Efficacy in %),[5]; application rate 80 g/ha,100%
same,Setaria viridis (Efficacy in %),[14]; application rate 80 g/ha,80%
same,Viola tricolor (Efficacy in %),[8]; application rate 80 g/ha,100%
same,Glycine max (Efficacy in %),[9]; application rate 20 g/ha,20%
same,Oryza sativa (Efficacy in %),[10],10%
same,Triticum aestivum (Efficacy in %),[11]; application rate 20 g/ha,20%
same,Zea mays (Efficacy in %),[12]; application rate 80 g/ha,0%
same,Abutilon theophrasti (Efficacy in %),[15]; application rate 320 g/ha,100%
same,Alopecurus myosuroides (Efficacy in %),[16],90%
same,Amaranthus retroflexus (Efficacy in %),[17]; application rate 320 g/ha,100%
same,Avena fatua (Efficacy in %),[18],80%
same,Echinochloa crus-galli (Efficacy in %),[19],100%
same,Lolium rigidum (Efficacy in %),[20],100%
same,Matricaria inodora (Efficacy in %),[21]; application rate 320 g/ha,100%
same,Pharbitis purpurea (Efficacy in %),[22],100%
same,Setaria viridis (Efficacy in %),[23],100%
same,Stellaria media (Efficacy in %),[24],100%
same,Veronica persica (Efficacy in %),[25],100%
same,Viola tricolor (Efficacy in %),[26]; application rate 320 g/ha,100%
same,Glycine max (Efficacy in %),[27],20%
same,Zea mays (Efficacy in %),[28],0%
CC(Sc1cc(-n2c(=O)cc(C(F)(F)F)n(C)c2=O)c(F)cc1Cl)C(=O)OCCCSC(F)(F)F (centres unmarked) [I.1-48],Abutilon theophrasti (Efficacy in %),[1]; application rate 20 g/ha,100%
same,Amaranthus retroflexus (Efficacy in %),[2],100%
same,Digitaria sanguinalis (Efficacy in %),[29],100%
same,Echinochloa crus-galli (Efficacy in %),[3],100%
same,Hordeum murinum (Efficacy in %),[30],80%
same,Matricaria inodora (Efficacy in %),[4]; application rate 20 g/ha,100%
same,Pharbitis purpurea (Efficacy in %),[13]; application rate 20 g/ha,100%
same,Polygonum convolvulus (Efficacy in %),[5]; application rate 20 g/ha,100%
same,Setaria viridis (Efficacy in %),[14]; application rate 20 g/ha,100%
same,Stellaria media (Efficacy in %),[6],100%
same,Veronica persica (Efficacy in %),[7],100%
same,Viola tricolor (Efficacy in %),[8]; application rate 20 g/ha,100%
same,Triticum aestivum (Efficacy in %),[11]; application rate 5 g/ha,10%
CC(Sc1cc(-n2c(=O)cc(C(F)(F)F)n(C)c2=O)c(F)cc1Cl)C(=O)NCC1CCOC1(C)C (centres unmarked) [I.1-227],Abutilon theophrasti (Efficacy in %),[1]; application rate 20 g/ha,100%
same,Amaranthus retroflexus (Efficacy in %),[2],100%
same,Matricaria inodora (Efficacy in %),[4]; application rate 20 g/ha,100%
same,Pharbitis purpurea (Efficacy in %),[13]; application rate 20 g/ha,100%
same,Polygonum convolvulus (Efficacy in %),[5]; application rate 20 g/ha,100%
same,Veronica persica (Efficacy in %),[7],100%
same,Viola tricolor (Efficacy in %),[8]; application rate 20 g/ha,80%
same,Glycine max (Efficacy in %),[9]; application rate 5 g/ha,20%
same,Oryza sativa (Efficacy in %),[10],0%
same,Triticum aestivum (Efficacy in %),[11]; application rate 5 g/ha,10%
same,Zea mays (Efficacy in %),[12]; application rate 20 g/ha,20%
same,Abutilon theophrasti (Efficacy in %),[15]; application rate 80 g/ha,100%
same,Amaranthus retroflexus (Efficacy in %),[17]; application rate 80 g/ha,100%
same,Matricaria inodora (Efficacy in %),[21]; application rate 80 g/ha,90%
same,Viola tricolor (Efficacy in %),[26]; application rate 80 g/ha,80%
same,Zea mays (Efficacy in %),[28],0%

# Reference: patent publication US11497212B2, “Substituted thiophenyl uracils, salts thereof and the use thereof as herbicidal agents” (Syngenta Crop Protection AG, priority 2017, dated 2022)
